Assay results reported in US8415312B2, “Compound which is a nystatin derivative” (Biosergen AS, priority 2007, dated 2013).
≈ marks a conversion by molar mass, not a printed value. Where “and” joins values, the source holds several entries; their conditions need not be identical. Identical values can stand only once.

What was measured:
[1] = system: Candida albicans ATCC 14053; assay: Antifungal susceptibility study (1), broth microdilution MIC; type: cell-based; conditions: lowest concentration preventing any visible growth, read at 48 hours, 35° C., RPMI 1640 pH 7.0
Procedure, shortened: (§1)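 Broth microdilution in test medium at pH 7.0 with two-fold compound dilutions (DMSO stocks diluted 50-fold into medium), inoculated with freshly grown yeast cultures. Plates were incubated without agitation at 35° C. for C. albicans or 25° C. for C. humicolus. MIC was taken as the concentration with no visible growth, read at 48 hours.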

[2] = system: Cryptococcus humicolus ATCC 9949; assay: as above; type: cell-based; conditions: lowest concentration preventing any visible growth, read at 48 hours, 25° C., RPMI 1640 pH 7.0
Procedure, shortened: as §1

[3] = system: Candida albicans (strain 14053 ATCC); assay: In vivo antifungal activity, kidney burden in infected mice; conditions: day 5, individual mice
Method: Male mice of hybrids of first generation (C57B1/6xDBA/2)F1 B6D2F1, weight 20-22 g., received from the Central farm. “Kryukovo” of Russian Academies of Medical Science (RAMS) were used. Animals were maintained in a vivarium in plastic cages (with hardwood bedding in environmentally controlled conditions: 24±1° C., 12/12 hours light/dark cycle) on a standard diet of bricketed forages with easy access to drinking water (ad libitum). After a 2-week quarantine period, healthy animals were used in experimental work.
The solutions were prepared as follows: dry antibiotic substances (5 mg) were mixed with dry sodium deoxycholate (4.1 mg) in a sterile glass vial. 10 mL of phosphate buffer (NaH2PO4—1.59 g; Na2HPO4—0.96 g; H2O—to 100 mL) was added to the mix and the suspension was immediately subjected to vigorous shaking for 10 minutes until homogeneous suspensions were formed.
Animals were infected intravenously with Candida albicans culture at a dose of 1.0 million CFU/mouse (volume 0.1 mL). 30 minutes after infection, the antifungal agents were introduced intravenously into the mice at various doses in a volume of 0.2 mL (at a rate of 0.2 mL/30 second). Each dose was administered daily for four days including the day of infection (0, 1, 2 and 3 days).
As a control, there was a group of untreated mice (infected in the same way with Candida albicans). Also there was a “placebo” group of non-infected animals which were intravenously administered (in the same volume as antifungal agent preparations) 0.2 mL of solvent (phosphatic buffer +5% glucose (1:1)).
On the 5th day of experiment, mice were weighed and euthanized (killed) by a cervical dislocation. Then, in sterile conditions, the Candida albicans burden of each mouse was determined by counting of viable homogenates from the kidneys. The kidneys were removed aseptically and weighed, then pounded in porcelain mortars with sterile corundum. Dilutions of the resulting suspensions were prepared and sowed on Petri dishes with agar Saburo, incubated for 24 hours at a temperature of 35° C. Developed colonies of Candida albicans were then counted and their quantity calculated on the basis of 1 g of kidney tissue.

[4] = system: Candida albicans (strain 14053 ATCC); assay: Model of the candidiasis sepsis of mice, kidney burden; type: in vivo; conditions: for Candida albicans burden in kidneys (Mean): day 5, n=3 mice
Method: In experiments used female mice of hybrids of first generation (C57B1/6xDBA/2)F1 (B6D2F1), weight 18-20 g., received from the Central farm “Kryukovo” of Russian Academies of Medical Science (RAMS). Animals were maintained in Institute' vivarium in plastic cages (with hardwood bedding in environmentally controlled room: 24±1° C., 12/12 hours light/dark cycle) on a standard diet of bricketed forages with an easy approach to drinking water (ad libitum). After 2-week quarantine healthy animals were used in experimental work.
A preparation of comparison was amphotericin B (pure). Solutions of tested preparations prepared ex tempore by the technique specified by the customer.
Animals were housed on 3 mice and infected intravenously with culture Candida albicans in a doze 1.0 million CFU/mouse in volume of 0.1 ml. It is necessary to note, that doze Candida albicans remained a constant in all experiments. In 30 minutes after infection to mice carried out the first intravenous introduction of tested preparations in corresponding dozes in volume of 0.2 ml (with a speed of 0.2 ml/30 second).
Experiment has been planned in such a manner that in each experiment one doze (both for amphotericin B was used, and for tested preparations), each doze entered daily within four days, since day of infection (0, 1, 2 and 3 days). At each experiment there was a group untreated, infected with Candida albicans animals. Also there was a group “placebo”, intact (not infected) animals, which intravenously (in the same volume as medical preparations) injected 0.2 ml of solvent—phosphatic buffer +5% glucose (1:1).
On the post challenge 5th day of experiment, mice were weighed and euthanized (killed) by a cervical dislocation. Then, in sterile conditions, Candida albicans burdens were determined by viable counting of homogenates from the kidneys. The kidneys, which were removed aseptically and weighed, pounded in porcelain mortars with sterile corundum, did dilutions of the received suspensions and sowed on Petri dishes with agar Saburo, incubated for 48 hours at temperature 35° C., then counted up developed colonies Candida albicans and recalculated their quantity on 1 g of kidney' tissue. The first dilution was 10^−1. Zero result at this cultivation accepted for 5 CFU/g.
For the basic criterion of an assessment of the investigated preparations the maximal effect of the Amphotricin B was accepted (effective dose, ED).
For significant accepted distinctions of average at P≦0.05 at comparison by Student t-criterion.

[5] = dose 0.08 mg/kg/d i.v. for four days
[6] = dose 0.16 mg/kg/d i.v. for four days
[7] = dose 0.31 mg/kg/d i.v. for four days
[8] = dose 0.62 mg/kg/d i.v. for four days
[9] = dose 1.25 mg/kg/d i.v. for four days
[10] = 0.08 mg/kg × 4/24 i.v., colonies per 1 g of kidney tissue
[11] = 0.8 mg/kg × 4/24 i.v., colonies per 1 g of kidney tissue
[12] = 2.5 mg/kg × 4/24 i.v., colonies per 1 g of kidney tissue
[13] = 5 mg/kg × 4/24 i.v., Candida albicans colonies per 1 g of kidney tissue
[14] = dose 2.5 mg/kg/d i.v. for four days

Compound | MIC Candida albicans ATCC 14053 [1] | MIC Cryptococcus humicolus ATCC 9949 [2] | Number of Colonies ([3]; 0.08 mg/kg × 4/24 i.v., colonies per 1 g of kidney tissue, listed as Amp B) | Number of Colonies ([3]; 0.8 mg/kg × 4/24 i.v., colonies per 1 g of kidney tissue, listed as Amp B) | Number of Colonies ([3]; 2.5 mg/kg × 4/24 i.v., colonies per 1 g of kidney tissue, listed as Amp B) | dose of maximal activity as % from MTD ([4]; 1.25 mg/kg/d) | Candida albicans burden in kidneys (Mean) [4, 5] | Candida albicans burden in kidneys (Mean) [4, 6] | Candida albicans burden in kidneys (Mean) [4, 7] | Candida albicans burden in kidneys (Mean) [4, 8] | Candida albicans burden in kidneys (Mean) [4, 9] | dose of maximal activity (effective dose, ED) ([4]; highest studied dose, criterion of activity) | Number of Colonies [3, 10] | Number of Colonies [3, 11] | Number of Colonies [3, 12] | Number of Colonies [3, 13] | Candida albicans burden in kidneys (Mean) [4, 14] | Candida albicans burden in kidneys (Mean) ([4]; dose 5 mg/kg/d i.v. for four days, zero result accepted for 5 CFU/g)
C[C@@H]1[C@H](O)[C@@H](C)/C=C/C=C/C=C/C=C/C=C/C=C/C=C/[C@H](O[C@@H]2O[C@H](C)[C@@H](O)[C@H](N)[C@@H]2O)C[C@@H]2O[C@](O)(C[C@@H](O)C[C@@H](O)[C@H](O)CC[C@@H](O)C[C@@H](O)CC(=O)O[C@H]1C)C[C@H](O)[C@H]2C(=O)O [Amphotericin B, reference compound] | 1 µg/mL (≈ 1.08 µM) | 1 µg/mL (≈ 1.08 µM) | 1.8 × 10^4 and 2.6 × 10^4 and 3.4 × 10^4 | 2 × 10^3 and 6 × 10^3 and 4 × 10^3 | 1.0 × 10^3 and 2.2 × 10^2 and 2.8 × 10^2 | ≈ 62% | 105000 CFU/g | 85667 CFU/g | 34667 CFU/g | 10667 CFU/g | 1667 CFU/g | 1.25 mg/kg/day |  |  |  |  |  | 
CC1C=CC=CC=CC=CC=CC=CC=CC(OC2OC(C)C(O)C(N)C2O)CC2OC(O)(CC(O)C(O)CCC(O)CC(O)CC(O)CC(=O)OC(C)C(C)C1O)CC(O)C2C (centres unmarked) [Compound 1] | 1 µg/mL (≈ 1.12 µM) | 1 µg/mL (≈ 1.12 µM) |  |  |  |  |  |  |  |  |  |  | 2.4 × 10^4 (2×) and 2.8 × 10^4 | 2.5 × 10^3 and 1.2 × 10^3 and 5.0 × 10^3 | 2.0 × 10^1 (2×) and 1.0 × 10^1 | 1.0 × 10^1 (2×) and 0 |  | 
CC1C=CC=CC=CC=CC=CC=CC=CC(OC2OC(C)C(O)C(N)C2O)CC2OC(O)(CC(O)C(O)CCC(O)CC(O)CC(O)CC(=O)OC(C)C(C)C1O)CC(O)C2C(=O)NCCCN(C)C (centres unmarked) [Compound 11, S44HP DMAP Amide] | 1 µg/mL (≈ 0.992 µM) | 1 µg/mL (≈ 0.992 µM) |  |  |  |  |  |  |  |  |  |  | 3.0 × 10^4 and 2.7 × 10^4 and 1.5 × 10^4 | 1.2 × 10^3 and 3.0 × 10^3 and 2.5 × 10^3 | <10^1 and 1.0 × 10^1 (2×) | 0 (2×) and <10^1 |  | 
CC1C=CC=CC=CC=CC=CC=CC=CC(OC2OC(C)C(O)C(N)C2O)CC2OC(O)(CC(O)C(O)CCC(O)CC(O)CC(O)CC(=O)OC(C)C(C)C1O)CC(O)C2C.NC(CCC(=O)O)C(=O)O [Compound 29, Compound 1 L-glutamate] | 1 µg/mL | 1 µg/mL |  |  |  |  |  | 102667 CFU/g |  | 12500 CFU/g | 2557 CFU/g |  |  |  |  |  | 133 CFU/g | 5 CFU/g
CC1O[C@@H](O[C@H]2/C=C/C=C/C=C/C=C/C=C/C=C/C=C/[C@H](C)[C@@H](O)[C@@H](C)[C@H](C)OC(=O)C[C@H](O)C[C@H](O)C[C@H](O)CC[C@@H](O)[C@H](O)C[C@]3(O)C[C@H](O)[C@@H](C)[C@H](C2)O3)[C@H](O)C(NC(=O)[C@@H](N)CCCCN)[C@@H]1O (stereo partly drawn) [Compound 51, N-L-Lysyl-Compound 1] | 1 µg/mL (≈ 0.978 µM) | 1 µg/mL (≈ 0.978 µM) |  |  |  |  | 56667 CFU/g |  | 22667 CFU/g | 17833 CFU/g | 9400 CFU/g |  |  |  |  |  | 5 CFU/g | 
